Experimental data published in patent publication US9751837B2, “Kinase inhibitors” (RESPIVERT LIMITED, priority 2014, dated 2017).
Converted amounts (≈) assume the structure as drawn. Like-named read-outs stand apart in the source and are kept apart here.

Assays:
[1] = target: GSK 3α (Homo sapiens (Human), UniProt P49840); test: GSK 3α enzyme inhibition (Method 2), Z-LYTE FRET; assay type: biochemical; settings: read-out: IC50 Values for Enzyme Inhibition GSK3α
Protocol: The enzyme inhibitory activities of compounds disclosed herein are determined by FRET using synthetic peptides labelled with both donor and acceptor fluorophores (Z-LYTE, Invitrogen Ltd., Paisley, UK).
The following two assay variants can be used for determination of GSK 3α inhibition.
The inhibitory activities of compounds of the invention against the GSK 3α enzyme isoform (Invitrogen), are evaluated by determining the level of activation/phosphorylation of the target peptide. The GSK3-α protein (500 ng/mL, 2.5 μL) is mixed with the test compound (2.5 μL at either 4 μg/mL, 0.4 μg/mL, 0.04 μg/mL, or 0.004 μg/mL) for 2 hr at RT. The FRET peptide (8 μM, 2.5 μL), which is a phosphorylation target for GSK3α, and ATP (40 μM, 2.5 μL) are then added to the enzyme/compound mixture and the resulting mixture incubated for 1 hr. Development reagent (protease, 5 μL) is added for 1 hr prior to detection in a fluorescence microplate reader (Varioskan® Flash, ThermoFisher Scientific).
In all cases, the site-specific protease cleaves non-phosphorylated peptide only and eliminates the FRET signal. Phosphorylation levels of each reaction are calculated using the ratio of coumarin emission (donor) over fluorescein emission (acceptor), for which high ratios indicate high phosphorylation and low ratios indicate low phosphorylation levels.
This method follows the same steps as Method 1 above, but utilises a shorter period of mixing of the test compound (105 minutes instead of 2 hours) with the GSK3-α protein. In addition, the concentrations of test compound employed are either 10 μg/mL, 1 μg/mL, 0.1 μg/mL, or 0.01 μg/mL

[2] = test system: Jurkat cells; test: Cell cytotoxicity assay (r); assay type: cell-based, human; settings: 24 hours
Procedure, shortened: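 Viability read by flow cytometry as the fraction of propidium iodide-negative cells (7.5 μg/mL PI, 15 min), relative to 1.0% DMSO control. Beforehand, 1×10^5 Jurkat cells in RPMI/10% FBS were treated 24 h at 37° C., 5% CO2 with test compound at final 20, 5 or 1 μg/mL.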

[3] = Solubility in fasted-state simulated colonic fluid (FaSSCoF) at pH 6.5; assay type: physicochemical; settings: 25 °C, pH 6.5, fassgf or other biorelevant, thermodynamic from solid
Procedure, shortened: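 Compounds were suspended at up to 2-10 mg/mL in pH 6.5 Tris/maleate FaSSCoF containing a five-bile-acid mixture, phosphatidylcholine, palmitic acid and BSA. After 24 h equilibration at 25° C the suspension was filtered and the filtrate quantified by HPLC peak area against a standard.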

[4] = Pharmacokinetics and total colon distribution after single oral administration; assay type: in vivo, male C57BL/6 mice; settings: male, C57BL/6, mouse, mice, Ex. 16 measured after oral 5 mg/kg of Ex. 19 (Na salt)
Protocol: Studies were conducted by Sai Life Sciences (Hinjewadi, Pune, India) to investigate the systemic pharmacokinetics and total colon tissue distribution of compounds of the invention. In particular, pharmacokinetic studies were carried out in male C57BL/6 mice following a single oral administration of the compound.

[5] = pH 6.5 FaSSCoF Solubility (mg/mL) Run 1
[6] = pH 6.5 FaSSCoF Solubility (mg/mL) Run 2
[7] = blood, read-out: Mean blood concentration
[8] = total colon, read-out: total colon level

Chain of GSK 3α (P49840 whole entry): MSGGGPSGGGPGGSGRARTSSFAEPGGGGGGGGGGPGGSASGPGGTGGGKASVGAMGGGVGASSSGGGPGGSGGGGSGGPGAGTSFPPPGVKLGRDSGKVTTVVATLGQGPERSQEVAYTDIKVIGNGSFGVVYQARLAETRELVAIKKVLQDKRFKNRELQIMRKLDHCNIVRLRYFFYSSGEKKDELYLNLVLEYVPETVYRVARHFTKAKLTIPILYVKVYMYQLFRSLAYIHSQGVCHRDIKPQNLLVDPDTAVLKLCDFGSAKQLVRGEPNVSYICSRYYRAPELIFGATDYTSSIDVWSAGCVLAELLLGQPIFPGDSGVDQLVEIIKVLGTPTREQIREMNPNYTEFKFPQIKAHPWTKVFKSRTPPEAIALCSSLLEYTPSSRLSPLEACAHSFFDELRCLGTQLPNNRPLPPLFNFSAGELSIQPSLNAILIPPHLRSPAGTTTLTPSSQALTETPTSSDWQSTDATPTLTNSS

SMILES	IC50 [1]	solubility thermodynamic at 24 h [3, 5]	solubility thermodynamic at 24 h [3, 6]	other results
COCCN(C)CCNC(=O)c1ccc(Nc2cc(Oc3ccc(NC(=O)Nc4cc(C(C)(C)C)cc(NS(C)(=O)=O)c4OC)c4ccccc34)ccn2)cc1OC [17(ad), 4-[[4-[[4-[[5-tert-butyl-3-(methanesulfonamido)-2-methoxy-phenyl]carbamoylamino]-1-naphthyl]oxy]-2-pyridyl]amino]-2-methoxy-N-[2-[2-methoxyethyl(methyl)amino]ethyl]-benzamide]	3.06 µM			% Viability at 5 μg/mL ([2]; 5 μg/mL): 6.3%; % Viability at 20 μg/mL [2]: 0.4%
COc1cc(Nc2cc(Oc3ccc(NC(=O)Nc4cc(C(C)(C)C)cc(NS(C)(=O)=O)c4OC)c4ccccc34)ccn2)cc(OC)c1C(=O)NCCN1CCOCC1 [17(ae), 4-[[4-[[4-[[5-tert-butyl-3-(methanesulfonamido)-2-methoxy-phenyl]carbamoylamino]-1-naphthyl]oxy]-2-pyridyl]amino]-2,6-dimethoxy-N-(2-morpholinoethyl)benzamide]	3 µM	11 µg/mL (≈ 13.1 µM)	12 µg/mL (≈ 14.3 µM)	
COc1cc(Nc2cc(Oc3ccc(NC(=O)Nc4cc(C(C)(C)C)cc(NS(C)(=O)=O)c4OC)c4ccccc34)ccn2)ccc1C(=O)N(C)CCCN1CCOCC1 [17(af), 4-[[4-[[4-[[5-tert-butyl-3-(methanesulfonamido)-2-methoxy-phenyl]carbamoylamino]-1-naphthyl]oxy]-2-pyridyl]amino]-2-methoxy-N-methyl-N-(3-morpholinopropyl)benzamide]	0.68 µM	10 µg/mL (≈ 11.9 µM)	10 µg/mL (≈ 11.9 µM)	
COc1cc(Nc2cc(Oc3ccc(NC(=O)Nc4cc(C(C)(C)C)cc(NS(C)(=O)=O)c4OC)c4ccccc34)ccn2)ccc1C(=O)NCC1CCN(C)CC1 [17(ak), 4-[[4-[[4-[[5-tert-butyl-3-(methanesulfonamido)-2-methoxy-phenyl]carbamoylamino]-1-naphthyl]oxy]-2-pyridyl]amino]-2-methoxy-N-[(1-methyl-4-piperidyl)methyl]benzamide]	1.82 µM			% Viability at 1 μg/mL ([2]; 1 μg/mL): 99.0%; % Viability at 20 μg/mL [2]: 0.4%
COc1cc(Nc2cc(Oc3ccc(NC(=O)Nc4cc(C(C)(C)C)cc(NS(C)(=O)=O)c4OC)c4ccccc34)ccn2)ccc1C(=O)NCCCN1CCOCC1 [17(b), 4-[[4-[[4-[[5-tert-butyl-3-(methanesulfonamido)-2-methoxy-phenyl]carbamoylamino]-1-naphthyl]oxy]-2-pyridyl]amino]-2-methoxy-N-(3-morpholinopropyl)benzamide]	4.49 µM	15 µg/mL (≈ 18.2 µM)	15 µg/mL (≈ 18.2 µM)	
COc1cc(Nc2cc(Oc3ccc(NC(=O)Nc4cc(C(C)(C)C)cc(NS(C)(=O)=O)c4OC)c4ccccc34)ccn2)ccc1C(=O)NCCN1CCCCC1 [17(p), 4-[[4-[[4-[[5-tert-butyl-3-(methanesulfonamido)-2-methoxy-phenyl]carbamoylamino]-1-naphthyl]oxy]-2-pyridyl]amino]-2-methoxy-N-[2-(1-piperidyl)ethyl]benzamide]	4.68 µM			% Viability at 20 μg/mL [2]: 1.5%
COc1cc(Nc2cc(Oc3ccc(NC(=O)Nc4cc(C(C)(C)C)cc(NS(C)(=O)=O)c4OC)c4ccccc34)ccn2)ccc1C(=O)N[C@@H](C)CN1CCOCC1 [17(v), 4-[[4-[[4-[[5-tert-butyl-3-(methanesulfonamido)-2-methoxy-phenyl]carbamoylamino]-1-naphthyl]oxy]-2-pyridyl]amino]-2-methoxy-N-[(1S)-1-methyl-2-morpholino-ethyl]benzamide]	> 12.1 µM	8 µg/mL (≈ 9.69 µM)	8 µg/mL (≈ 9.69 µM)	
COc1cc(Nc2cc(Oc3ccc(NC(=O)Nc4cc(C(C)(C)C)cc(NS(C)(=O)=O)c4OC)c4ccccc34)ccn2)ccc1C(=O)NCCOCCOCCC(=O)O [17(x), 3-[2-[2-[[4-[[4-[[4-[[5-tert-butyl-3-(methanesulfonamido)-2-methoxyphenyl]carbamoyl-amino]-1-naphthyl]oxy]-2-pyridyl]amino]-2-methoxy-benzoyl]amino]ethoxy]ethoxy]propanoic acid]	0.412 µM	15 µg/mL (≈ 17.5 µM)	9 µg/mL (≈ 10.5 µM)	
COc1cc(Nc2cc(Oc3ccc(NC(=O)Nc4cc(C(C)(C)C)cc(C(N)=O)c4OC)c4ccccc34)ccn2)ccc1C(=O)O [Example 3, 4-((4-((4-(3-(5-(tert-Butyl)-3-carbamoyl-2-methoxyphenyl)ureido)naphthalen-1-yl)oxy)pyridin-2-yl)amino)-2-methoxybenzoic acid]	0.139 µM	6 µg/mL (≈ 9.23 µM)	6 µg/mL (≈ 9.23 µM)	
COc1cc(Nc2cc(Oc3ccc(NC(=O)Nc4cc(C(C)(C)C)cc(NS(C)(=O)=O)c4OC)c4ccccc34)ccn2)ccc1C(=O)NCCOCCOCCO [Example 16, 4-[[4-[[4-[[5-tert-Butyl-3-(methanesulfonamido)-2-methoxy-phenyl]carbamoylamino]-1-naphthyl]oxy]-2-pyridyl]amino]-N-[2-[2-(2-hydroxyethoxy)ethoxy]ethyl]-2-methoxy-benzamide]	3.73 µM	4 µg/mL (≈ 4.81 µM)	4 µg/mL (≈ 4.81 µM)	concentration at 0.5 h [4, 7]: 1.3 ng/mL; concentration at 1 h [4, 7]: 1.4 ng/mL; concentration at 2 h [4, 7]: 0.6 ng/mL; concentration at 4 h [4, 7]: 0 ng/mL; concentration at 6 h [4, 7]: 0 ng/mL; concentration at 8 h [4, 7]: 0.2 ng/mL; concentration at 12 h [4, 7]: 0 ng/mL; concentration at 24 h [4, 7]: 0 ng/mL; concentration at 0.5 h [4, 8]: 9.5 ng/g; concentration at 1 h [4, 8]: 110 ng/g; concentration at 2 h [4, 8]: 2400 ng/g; concentration at 4 h [4, 8]: 3350 ng/g; concentration at 6 h [4, 8]: 3320 ng/g; concentration at 8 h [4, 8]: 3420 ng/g; concentration at 12 h [4, 8]: 5090 ng/g; concentration at 24 h [4, 8]: 0 ng/g
COc1cc(Nc2cc(Oc3ccc(NC(=O)Nc4cc(C(C)(C)C)cc(NS(C)(=O)=O)c4OC)c4ccccc34)ccn2)cc(OC)c1C(=O)O [Example 46, 4-[[4-[[4-[[5-tert-Butyl-3-(methanesulfonamido)-2-methoxyphenyl]carbamoylamino]-1-naphthyl]oxy]-2-pyridyl]amino]-2,6-dimethoxybenzoic acid]	0.225 µM			
